# ChEMBL document CHEMBL1201862, “PubChem BioAssay data set” (2004)
# Calls of active or inactive are those of the source.
# Tests used:
# Cytochrome P450 2C9 = Cytochrome P450 2C9 (Homo sapiens, UniProt P11712)
# [1] = inhibitors of firefly luciferase expression or activity, dose response, H4 neuroglioma cells, luminescence (AID 1990); format: functional, cell-based
# BJ [2] = test: cytotoxicity toward BJ-TERT fibroblasts, dose response, cell-based, RAS-independent, luminescence (AID 1933); format: functional; details: Homo sapiens
# [3] = Luminescence Cell-Based Dose Response HTS to Identify Inhibitors of 5'UTR Stem-Loop Driven Prion Protein mRNA Translation in H4 Neuroglioblastoma Cells. [Related pubchem assays: 1827 (Project Summary), 1813 (Primary HTS)]; format: functional
# BJ [4] = test: cytotoxicity toward BJ-TERT-LT-ST fibroblasts, dose response, cell-based, RAS-independent, luminescence (AID 1935); format: functional; details: Homo sapiens;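 further: BJ fibroblasts immortalized with TERT plus LT and ST oncogenes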
# BJ [5] = test: cells; format: functional, cell-based; details: Homo sapiens
# [6] = cytotoxicity toward DRD oncogenic fibroblasts, dose response, cell-based, non-viral oncogenic, luminescence (AID 1934); format: functional; details: Homo sapiens
# Aminopeptidase N = target: T1, Aminopeptidase N (Plasmodium falciparum FcB1/Columbia, UniProt O96935); test: P. falciparum M1AAP inhibitors, biochemical, fluorogenic H-Leu-NHMec substrate, 1536-well (AID 1445); design: species or system Plasmodium falciparum 3D7, 3D7
# T1 sequence (O96935 whole entry): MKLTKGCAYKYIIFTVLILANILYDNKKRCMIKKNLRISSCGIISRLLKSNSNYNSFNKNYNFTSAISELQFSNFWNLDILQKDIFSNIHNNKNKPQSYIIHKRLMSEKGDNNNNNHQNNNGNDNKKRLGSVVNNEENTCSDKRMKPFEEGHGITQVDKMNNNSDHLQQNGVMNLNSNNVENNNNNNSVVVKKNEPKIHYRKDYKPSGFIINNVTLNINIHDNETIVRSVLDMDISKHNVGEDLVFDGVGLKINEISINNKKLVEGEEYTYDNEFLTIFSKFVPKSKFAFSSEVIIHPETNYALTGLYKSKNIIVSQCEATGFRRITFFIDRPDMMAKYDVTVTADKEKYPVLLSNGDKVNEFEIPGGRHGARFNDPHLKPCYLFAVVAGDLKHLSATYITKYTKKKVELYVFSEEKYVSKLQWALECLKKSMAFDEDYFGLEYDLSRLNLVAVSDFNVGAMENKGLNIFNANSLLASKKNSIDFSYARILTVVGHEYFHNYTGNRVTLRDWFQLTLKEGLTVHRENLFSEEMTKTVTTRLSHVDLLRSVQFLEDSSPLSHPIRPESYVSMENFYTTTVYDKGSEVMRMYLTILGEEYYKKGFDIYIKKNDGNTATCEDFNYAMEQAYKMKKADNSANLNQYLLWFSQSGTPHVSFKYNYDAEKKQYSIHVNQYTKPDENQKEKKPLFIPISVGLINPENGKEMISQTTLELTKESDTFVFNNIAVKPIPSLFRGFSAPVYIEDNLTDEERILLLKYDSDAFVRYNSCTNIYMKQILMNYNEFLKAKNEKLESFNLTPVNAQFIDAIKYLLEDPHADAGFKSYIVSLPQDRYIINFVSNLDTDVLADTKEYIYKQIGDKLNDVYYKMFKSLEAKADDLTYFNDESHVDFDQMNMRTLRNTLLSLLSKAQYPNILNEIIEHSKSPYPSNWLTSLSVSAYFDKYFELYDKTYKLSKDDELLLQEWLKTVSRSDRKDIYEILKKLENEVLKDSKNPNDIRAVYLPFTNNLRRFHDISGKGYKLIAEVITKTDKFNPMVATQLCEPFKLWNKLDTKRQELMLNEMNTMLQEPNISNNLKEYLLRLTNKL
# Genome polyprotein = Genome polyprotein (dengue virus type 2, UniProt P29990); test: Dengue-2 NS5 methyltransferase inhibitors, primary screen, biochemical, confirmation dose response (AID 588689); format: functional
# [7] = growth suppression of PTEN-null colon cells, dose response, cell-based, HCT116 PTEN knockout (AID 1047); format: functional;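 further: HCT116 colon tumor cells with PTEN knocked out; cells exposed to compound for 60 hours before readout; potency for loss of cell viability measured by luminescence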
# [8] = growth suppression of beta-catenin-knockout colon cells, dose response, cell-based, HCT116, human colon tumor (AID 1045); format: functional;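 further: HCT116 colon tumor cells with beta catenin knocked out; cells exposed to compound for 60 hours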
# [9] = inhibitors of intracellular T. cruzi replication, confirmation, NIH3T3 host cells, beta-gal luminescence (AID 2044); format: functional, cell-based;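 further: intracellular parasites grown in NIH/3T3 mouse fibroblasts as host cells; luminescent beta-galactosidase reporter signal from transgenic T. cruzi replicating inside host cells; inhibitors lower the luminescence signal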
# [10] = cytotoxicity toward NIH3T3 fibroblasts, dose response, counter-screen, cell-based, ATP luminescence, mouse fibroblasts (AID 2010); format: functional;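 further: cells exposed to compound for about 90 hours before reading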
# cells = format: functional
# Cytochrome P450 1A2 = target: T2, Cytochrome P450 1A2 (Homo sapiens, UniProt P05177);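 further: PubChem cytochrome P450 panel assay, CYP1A2 panel member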
# T2 sequence (P05177 whole entry): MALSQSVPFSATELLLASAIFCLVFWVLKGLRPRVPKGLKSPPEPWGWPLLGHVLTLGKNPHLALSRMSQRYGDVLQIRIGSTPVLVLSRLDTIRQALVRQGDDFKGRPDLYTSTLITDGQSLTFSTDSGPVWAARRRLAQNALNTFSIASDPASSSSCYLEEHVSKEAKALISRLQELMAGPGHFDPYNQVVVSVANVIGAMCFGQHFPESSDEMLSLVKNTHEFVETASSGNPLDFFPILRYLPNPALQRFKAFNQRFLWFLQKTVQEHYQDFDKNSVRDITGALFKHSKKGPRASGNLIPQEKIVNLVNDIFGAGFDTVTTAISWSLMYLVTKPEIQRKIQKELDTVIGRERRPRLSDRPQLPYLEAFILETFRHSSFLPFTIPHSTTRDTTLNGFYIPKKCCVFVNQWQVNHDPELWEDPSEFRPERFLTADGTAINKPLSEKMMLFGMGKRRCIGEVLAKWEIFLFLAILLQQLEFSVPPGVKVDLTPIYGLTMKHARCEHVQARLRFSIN
# Cytochrome P450 2C19 = Cytochrome P450 2C19 (Homo sapiens, UniProt P33261); test: Cytochrome panel assay with activity outcomes. Panel member name: p450-cyp2c19 Compounds with AC50 equal or less than 10 uM are considered active; format: functional; details: read-out: AC50
# Cytochrome P450 3A4 = Cytochrome P450 3A4 (Homo sapiens, UniProt P08684);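 further: CYP3A4 tested as one member of a cytochrome P450 panel screen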
# SN12K1 = test: cells; format: functional; details: Homo sapiens
# P388/ADR = test: cells; format: functional; details: Mus musculus
# P388 = test: cells; format: functional; details: Mus musculus
# Cytochrome P450 2D6 = Cytochrome P450 2D6 (Homo sapiens, UniProt P10635);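 further: CYP2D6 member of a cytochrome P450 panel assay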
# [11] = P. falciparum Dd2 growth inhibitors, dose response, SYBR Green, cherry-picked samples (AID 1159567); format: functional, cell-based
# Sequence of Cytochrome P450 2C9 (P11712 whole entry): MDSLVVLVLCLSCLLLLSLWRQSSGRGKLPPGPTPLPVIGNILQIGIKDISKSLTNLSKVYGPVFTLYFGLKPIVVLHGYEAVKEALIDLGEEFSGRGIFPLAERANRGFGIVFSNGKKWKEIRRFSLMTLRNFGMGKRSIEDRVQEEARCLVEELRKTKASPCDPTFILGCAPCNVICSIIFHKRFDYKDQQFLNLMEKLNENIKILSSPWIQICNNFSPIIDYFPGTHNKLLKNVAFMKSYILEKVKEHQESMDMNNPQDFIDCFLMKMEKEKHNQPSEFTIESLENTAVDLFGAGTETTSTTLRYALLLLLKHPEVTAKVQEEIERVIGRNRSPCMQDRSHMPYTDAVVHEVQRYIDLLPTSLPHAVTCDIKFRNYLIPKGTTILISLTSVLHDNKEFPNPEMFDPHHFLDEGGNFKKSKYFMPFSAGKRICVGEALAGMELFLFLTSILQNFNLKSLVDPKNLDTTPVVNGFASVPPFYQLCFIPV
# Sequence of Cytochrome P450 2C19 (P33261 whole entry): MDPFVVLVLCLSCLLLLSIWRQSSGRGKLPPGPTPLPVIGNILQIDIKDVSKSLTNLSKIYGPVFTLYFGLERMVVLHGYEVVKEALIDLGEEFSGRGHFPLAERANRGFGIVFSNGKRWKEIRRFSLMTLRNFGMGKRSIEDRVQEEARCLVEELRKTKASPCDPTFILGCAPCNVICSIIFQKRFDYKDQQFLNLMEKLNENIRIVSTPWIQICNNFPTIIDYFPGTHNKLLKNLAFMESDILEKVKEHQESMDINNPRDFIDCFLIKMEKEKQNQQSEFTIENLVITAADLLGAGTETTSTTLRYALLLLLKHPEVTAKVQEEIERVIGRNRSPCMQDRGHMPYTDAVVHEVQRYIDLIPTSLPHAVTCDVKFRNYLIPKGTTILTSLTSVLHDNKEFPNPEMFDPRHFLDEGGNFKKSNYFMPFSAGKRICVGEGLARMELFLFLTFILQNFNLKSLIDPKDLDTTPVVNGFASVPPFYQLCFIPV
# Sequence of Cytochrome P450 3A4 (P08684 whole entry): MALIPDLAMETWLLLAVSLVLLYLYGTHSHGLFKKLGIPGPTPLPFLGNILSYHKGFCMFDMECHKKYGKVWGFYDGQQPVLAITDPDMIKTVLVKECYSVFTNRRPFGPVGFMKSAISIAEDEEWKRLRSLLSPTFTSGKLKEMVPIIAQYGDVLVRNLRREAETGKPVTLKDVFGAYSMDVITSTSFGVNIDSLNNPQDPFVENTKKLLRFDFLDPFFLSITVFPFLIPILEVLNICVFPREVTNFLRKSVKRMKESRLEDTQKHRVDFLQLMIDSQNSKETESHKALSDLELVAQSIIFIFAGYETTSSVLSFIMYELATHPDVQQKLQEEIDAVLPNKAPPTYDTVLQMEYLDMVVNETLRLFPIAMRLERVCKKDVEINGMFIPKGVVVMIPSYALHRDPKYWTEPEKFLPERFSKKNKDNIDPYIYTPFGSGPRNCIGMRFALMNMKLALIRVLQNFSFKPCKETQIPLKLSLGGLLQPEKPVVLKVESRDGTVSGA
# Sequence of Genome polyprotein (P29990 2492-3391 limits assumed): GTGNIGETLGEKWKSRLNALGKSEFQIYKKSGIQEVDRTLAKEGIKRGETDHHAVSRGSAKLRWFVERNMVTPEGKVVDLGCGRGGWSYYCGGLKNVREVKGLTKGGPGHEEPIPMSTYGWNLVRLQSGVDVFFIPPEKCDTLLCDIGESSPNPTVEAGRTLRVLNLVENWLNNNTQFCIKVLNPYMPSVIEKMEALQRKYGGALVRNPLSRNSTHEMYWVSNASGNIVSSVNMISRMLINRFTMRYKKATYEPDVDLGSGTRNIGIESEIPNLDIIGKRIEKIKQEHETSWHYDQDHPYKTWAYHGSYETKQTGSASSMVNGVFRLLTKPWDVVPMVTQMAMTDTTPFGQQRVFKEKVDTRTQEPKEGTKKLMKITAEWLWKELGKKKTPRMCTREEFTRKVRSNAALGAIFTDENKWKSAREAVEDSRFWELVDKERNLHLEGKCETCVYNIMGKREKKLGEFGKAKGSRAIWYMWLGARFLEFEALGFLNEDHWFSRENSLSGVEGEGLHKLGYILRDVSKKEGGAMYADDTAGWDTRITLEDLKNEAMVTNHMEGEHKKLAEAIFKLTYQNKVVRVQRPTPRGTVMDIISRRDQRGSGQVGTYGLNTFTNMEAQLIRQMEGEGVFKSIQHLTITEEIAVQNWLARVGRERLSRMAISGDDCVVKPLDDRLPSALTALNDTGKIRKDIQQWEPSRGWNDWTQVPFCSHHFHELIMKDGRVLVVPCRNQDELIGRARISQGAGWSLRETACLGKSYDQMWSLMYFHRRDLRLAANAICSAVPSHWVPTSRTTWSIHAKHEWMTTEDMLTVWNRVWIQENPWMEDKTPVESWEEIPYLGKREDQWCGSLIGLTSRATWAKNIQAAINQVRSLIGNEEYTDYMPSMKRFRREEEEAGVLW
# Sequence of Cytochrome P450 2D6 (P10635 whole entry): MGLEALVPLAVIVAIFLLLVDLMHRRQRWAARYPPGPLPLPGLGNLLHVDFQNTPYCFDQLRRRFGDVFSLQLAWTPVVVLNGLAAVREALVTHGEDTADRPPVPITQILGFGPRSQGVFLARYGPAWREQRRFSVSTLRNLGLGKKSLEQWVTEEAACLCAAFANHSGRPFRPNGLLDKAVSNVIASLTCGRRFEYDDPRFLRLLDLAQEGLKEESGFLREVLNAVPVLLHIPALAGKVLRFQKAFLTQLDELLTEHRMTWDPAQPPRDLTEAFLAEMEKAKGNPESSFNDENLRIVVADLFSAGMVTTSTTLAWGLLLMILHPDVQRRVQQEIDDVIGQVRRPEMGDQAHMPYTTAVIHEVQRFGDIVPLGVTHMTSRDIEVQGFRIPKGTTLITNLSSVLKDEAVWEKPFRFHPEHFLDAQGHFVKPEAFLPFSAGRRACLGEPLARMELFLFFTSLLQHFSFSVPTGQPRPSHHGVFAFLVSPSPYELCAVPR
compound,measurement,setting,value
CN(C)c1nc(-c2cccnc2)nc2ccccc12,AC50,Cytochrome P450 2C9,inconclusive
COc1ccc(-n2c(SC(C)C(=O)Nc3ncc(Cl)cc3Cl)nc3ccccc32)cc1 (stereo unspecified),EC50,[1],12.6 µM (active)
same,EC50,BJ [2],29.8 µM (active)
same,EC50,[3],38.4 µM (active)
same,EC50,BJ [4],> 150 µM (not active)
same,EC50,BJ [5],22.3 µM (active)
same,EC50,[6],89.7 µM (active)
Cc1cccc(C2C3=C(O)c4ccccc4C3=Nc3nn(-c4ccccc4)c(O)c32)c1 (stereo unspecified),IC50,Aminopeptidase N,38.3 µM (active)
same,IC50,Genome polyprotein,59.4 µM (active)
COCCCNC(=O)c1cc2c(=O)n(C)c3ccccc3c2n1C,EC50,[7],14.4 µM (active)
same,EC50,[8],15.4 µM (active)
OC(CNc1ccccc1)COc1ccc(OCC(O)CNc2ccccc2)cc1 (stereo unspecified),EC50,[9],3.54 µM (active)
same,EC50,[7],15.6 µM (active)
same,EC50,[10],> 60 µM (not active)
same,EC50,[8],15 µM (active)
COc1cccc2cc(-c3nc4ccccc4[nH]3)c(=O)oc12,IC50,cells,< 0.1 µM (active)
COc1ccc(CCN2C(=O)c3ccccc3NC2c2cc(Cl)c(O)c(OC)c2)cc1 (stereo unspecified),EC50,BJ [2],11.3 µM (inconclusive)
same,EC50,BJ [4],25.7 µM (inconclusive)
same,EC50,BJ [5],> 150 µM (inconclusive)
same,EC50,[6],12.9 µM (active)
O=C(Cc1ccc(Cl)cc1)NNC(=O)Nc1cccc2ccccc12,AC50,Cytochrome P450 1A2,2.51 µM (inconclusive)
same,AC50,Cytochrome P450 2C9,inconclusive
Cc1ccc(C)c(NC(=O)Cn2nnc(C(=O)Nc3c(C)cccc3C)c2N)c1,AC50,Cytochrome P450 2C19,17.8 µM (inconclusive)
same,AC50,Cytochrome P450 2C9,inconclusive
O=C(/C=C/c1ccccc1Cl)NCCN1CCOCC1,AC50,Cytochrome P450 3A4,15.8 µM (inconclusive)
same,AC50,Cytochrome P450 2C19,5.01 µM (inconclusive)
same,AC50,Cytochrome P450 2C9,inconclusive
COc1ccc(S(=O)(=O)N/N=C/C(=O)O)cc1,GI50,SN12K1,360 µM (inactive)
same,GI50,P388/ADR,212 µM (inactive)
same,GI50,P388,255 µM (inactive)
CNC(=O)OCc1nc(SC)n(C)c1COC(=O)NC,GI50,SN12K1,115 µM (inactive)
same,GI50,P388/ADR,147 µM (inactive)
same,GI50,P388,75 µM (inactive)
C/C=C(\C)c1cc(=O)c2c(C)cc3c(c2o1)C(=O)c1c(O)c(C2CC(C)(N(C)C)C(O)C(C)O2)cc(C2CC(N(C)C)C(O)C(C)O2)c1C3=O (stereo unspecified),GI50,SN12K1,1.26 µM (inactive)
same,GI50,P388/ADR,3.08 µM (inactive)
same,GI50,P388,0.964 µM (active)
Cc1cc(C(=O)N/N=C/c2ccc3c(c2)OCO3)c2ccccc2n1,EC50,BJ [2],12.7 µM (active)
same,EC50,BJ [4],20.9 µM (active)
same,EC50,BJ [5],33.6 µM (active)
same,EC50,[6],22.7 µM (active)
Cn1cccc1/C=N/NC(=O)c1sc2ccccc2c1Cl,AC50,Cytochrome P450 2D6,10 µM (inconclusive)
same,AC50,Cytochrome P450 2C9,inconclusive
COc1cc(C2c3cc4c(cc3[C@@H](Nc3ccc(C#N)cc3)C3COC(=O)[C@H]23)OCO4)cc(OC)c1O (stereo partly specified),GI50,SN12K1,0.0736 µM (active)
same,GI50,P388/ADR,0.352 µM (active)
same,GI50,P388,0.00998 µM (active)
COc1ccccc1S(=O)(=O)N1[C@@H]2CNC[C@H]1[C@H]2c1ccc(-c2ccccc2C)cc1,AC50,[11],27.7 µM (active)
